{"source": "patent EP0334956A1", "about": "“HEMOLYSIS INHIBITOR AND MEDICAL RESIN COMPOSITION, MEDICAL IMPLEMENT, AND BLOOD-PRESERVING FLUID CONTAINING THE SAME” (KAO CORPORATION, priority 1986, dated 1988)", "key": {"[1]": {"test_system": "human concentrated red cells", "assay": "Hemolysis of stored CRC, reagent added as Tween 80/physiological saline emulsion; plasma hemoglobin by TMB method", "assay_type": "cell-based", "conditions": "for Hemoglobin concentration in plasma: Table 1, emulsion, 4°C, 4 weeks; for hemolysis depressing capacity (in words): summary of Tables 1 through 6 (emulsion and direct addition)", "method": "Isopropyl isotridecyl maleate was added to a 2000ug/ml polyoxyethylene monooleate (reagent-grade product of Wako Junyaku K.K. marketed under trademark designation of \"Tween 80\")/physiological saline mixed solution in such an amount to be contained therein in a final concentration of 4mM. A 0.2ml aliquot of the resultant emulsion was added to a human concentrated red cells (hereinafter referred to as \"CRC\") adjusted in advance to a hematocrit value of about 70% so as to be contained therein in a final concentration indicated in Table 1. The resulting liquid was placed in a stoppered polypropylene tube and left standing at rest at 4°C for 4 weeks. At the end of this standing, it was tested for plasma hemoglobin concentration by the TMB method (Clin. Chem., 23, 749-(1977)).\nAn emulsion was prepared by following the procedure of Example 1, except that isopropyl decyl maleate was used in place of isopropyl-isotridecyl maleate. A CRC sample incorporating the emulsion was left standing and thereafter tested for plasma hemoglobin concentration.\nEmulsions were prepared by following the procedure of Excample 1, except that di-2-ethylhexyl phthalate (Control 1) and diisopropyl maleate, a carboxylic ester compound deviating from the scope of the present invention (Control 2) were respectively used in place of isopropyl isotridecyl maleate. CRC samples severally incorporating the emulsions were left standing and, thereafter, tested for plasma hemoglobin concentration.\nGlycerine-l-butyl-3-isostearyl ether was added to a 2000 ug/ml polyoxyethylene monooleate (regent-grade product of Wako Junyaku K.K. marketed under trademark designation of \"Tween 80\")/ physiological saline mixed solution so as to be contained therein in a final concentration of 4 mM. A 0.2ml aliquot of the resultant emulsion was added to CRC adjusted in advance to a hematocrit value of about 70% so as to be contained therein in a final concentration indicated in Table 3. The resultant liquid was placed in a stoppered polypropylene tube and left standing at 4°C for 4 weeks. Thereafter, it was tested for plasma hemoglobin concentration by following the procedure of Example 1.\nAn emulsion was prepared by following the procedure of Example 5, except that glycerine-1,3-dioctyl ether was used in place of glycerine- l-butyl-3-isostearyl ether. A CRC sample incorporating the resultant emulsion was left standing and, thereafter, tested for plasma hemoglobin concentration. Controls 7 and 8\nEmulsions were prepared by following the procedure of Example 5, except that di-2-ethylhexyl phthalate (Control 7) and glycerine monooctyl ether, an ether compound deviating from the scope of the present invention, (Control 8) were respectively used in place of glycerine-l-butyl-3-isostearyl ether. CRC samples incorporating the emulsions were left standing and, thereafter, tested for plasma hemoglobin concentration.\nIsopropyl isolaurate was dispersed in a 2000 ug/ml poloxyethylene monooleate (reagent-grade product of Wako Junyaku K.K. marketed under trademark designation of \"Tween 80\")/physiological saline mixed solution so as to be contained therein in a concentration of 4 mM. A 0.2-ml aliquot of the resultant emulsion was added to CRC adjusted in advance to a hematocrit value of about 70% so as to be contained therein in a final concentration indicated in Table 5. The resultant liquid was placed in a stoppered polypropylene tube and left standing at 4°C for 4 weeks. Thereafter, it was tested for plasma hemoglobin concentration by following the procedure of Example 1.\nAn emulsion was prepared by following the procedure of Example 9, except that 2-ethylhexyl isostearate was used in place of isopropyl isolaurate. A CRC sample incorporating the resultant emulsion was left standing and, thereafter, tested for plasma hemoglobin concentration."}, "[2]": {"test_system": "CRC", "assay": "Hemolysis of stored CRC, reagent added directly to CRC; plasma hemoglobin by TMB method", "assay_type": "cell-based, human", "design": "unit not given here", "conditions": "Table 2, direct addition, 4°C, 4 weeks", "method": "Isopropyl isotridecyl maleate was added to CRC adjusted in advance to a hematocrit value of about 70% so as to be contained threrein in a final concentration indicated in Table 2 and stirred gently. The resultant liquid was placed in a stoppered polypropylene tube and left standing at rest at 4°C for 4 weeks, while subjecting to gentle stirring per a week. Thereafter, it was tested for plasma hemoglobin concentration by following the procedure of Example 1.\nBy following the procedrue of Example 3, isopropyl decyl maleate was added to CRC in the place of isopropyl isotridecyl maleate. The resultant liquid was left standing and, thereafter, tested for plasma hemoglobin concentration.\nCRC samples were obtained by following the procedure of Example 3, except that di-2-ethylhexyl phthalate (Control 4) and diisopropyl maleate, a carboxylic ester compound deviating from the scope of this invention, (Control 5) were respectively used in place of isopropyl isotridecyl maleate. The resultant liquids were left standing and, thereafter, tested for plasma hemoglobin concentration.\nGlycerine-l-butyl-isostearyl ether was added to CRC adjusted in advance to a hematocrit value of about 70% so as to be contained therein in a final concentration indicated in Table 4 and stirred gently. The resultant liquid was placed in a stoppered polypropylene tube and left standing at 4°C for 4 weeks, while subjecting to gentle stirring per a week. Thereafter, it was tested for plasma hemoglobin concentration by following the procedure of Example 1.\nA CRC sample was prepared by following the procedure of Example 7, except that glycerine-1,3-dioctyl ether was used in place of glycerine-1-butyl 3-isostearyl ether. The resultant liquid was left standing and, thereafter, tested for plasma hemoglobin concentration.\nEmulsions were prepared by following the procedure of Example 7, excepting di-2-ethylhexyl phthalate (Control 10) and glycerine monooctyl ether, an ether compound deviating from the scope of the present invention, (Control 11) were respectively used in the place of glycerine-l-butyl-3-isostearyl ether. CRC samples incorporating the emulsions were left standing and, thereafter, tested for plasma hemoglobin concetnration.\nIsopropyl isolaurate was added to CRC adjusted in advance to a hematocrit value of about 70% so as to be contained therein in a final concentration indicated in Table 4 and stirred gently. The resultant liquid was place in a stoppered polypropylene tube and left standing at 4°C for 4 weeks, while subjecting to gentle stirring par a week. Thereafter, it was tested for plasma hemoglobin concentration by following the procedure of Example 1.\nAn emulsion was prepared by following the procedrue of Example 11, except that 2-ethylhexyl isostearate was used in place of isopropyl isolaurate. A CRC sample incorporating the resultant emulsion was left standing and, thereafter, tested for plasma hemoglobin concentration.\nEmulsions were prepared by following the procedure of Example 11, except that di-2-ethylhexyl phthalate (Control 16) and ethyl-2-ethylhexanoate, a monocarboxylic ester compound deviating from the scope of the present invention, (Control 17) were respectively used in place of isopropyl isolaurate. CRC samples incorporating the resultant emulsions therein were left standing and, thereafter, tested for plasma hemoglobin concentraiton."}, "[3]": {"test_system": "human platelet rich plasma", "assay": "Platelet aggregation in platelet rich plasma (Aggrecoder)", "assay_type": "cell-based", "conditions": "40 mM methanol solution added in 1/100, room temperature 2 hours, relative to blank; for Ratio of platelet aggregation: 400 µM; for activity at 400 µM: Homo sapiens, Platelet, 2 h, read-out: Ratio of platelet aggregation", "method": "A 40 mM methanol solution of isopropyl isotridecyl maleate (Example 13), a 40 mM methanol solution of glycerine-l-butyl-3-isostearyl ether (Example 14), a 40 mM methanol solution of isopropyl isolaurate (Example 15), a 40 mM methanol solution of di-2-ethylhexyl phthalate (Control 19) and methanol containing no added compound (Control 20) were severally added to a human platelet rich plasma (count of platelets about 300,000/mm ) in a fixed amount of 1/100, left standing at room temperature for 2 hours, and tested for platelet aggregation by the use of an instrument (product of Kyoto Daiichikagaku K.K. marketed under \"Aggrecoder\").\nThe percentage of transmittance of light through the solution of platelet rich plasma containing a given sample to the maximum transmittance of light through the same solution of platelet rich plasma not containing the sample (blank) was reported as the ratio of aggregation of the sample. As aggregation inducers, 5 µM ADP (adenosine diphosphoric acid) and 5 ug/ml collagen were used."}, "[4]": {"test_system": "concentrated human red cells", "assay": "Hemolysis of CRC stored with blood preserving liquid (SAG solution/Tween 80 emulsion)", "assay_type": "cell-based", "conditions": "4°C, 5 weeks", "method": "An emulsion was produced by dissolving Tween 80 (reagent grade produced by Wako Junyaku K.K.) in a SAG solution (containing 140 mM of NaCl, 1.25 mM of adenine and 50 mM of glucose) so as to be contained therein in a concentration of 600 µg/ml adding 12 mM isopropyl isotridecyl maleate to the resultant solution, and stirring the resultant mixture for uniform dispersion. In a stoppered polypropylene tube, a mixture of 1.0 ml of the emulsion prepared as described above and 2.0 ml of a liquid of concentrated human red cells adjusted in advance to a hematocrit value of about 70% was left standing at 4°C for 5 weeks. The resultant liquid was tested for free hemoglobin concentration in plasma by following the procedure of Example 1.\nAn emulsion was prepared by dissolving Tween 80 (reagent grade product of Wako Junyaku K.K.) in a SAG liquid so as to be contained therein in a concentration of 600 µg/ml, adding 12 mM of glycerine-l-butyl-3-isostearyl ether and stirring the resultant mixture for 'uniform dispersion. In a stoppered polypropylene tube, a mixture of 1.0 ml of the emulsion prepared as described above and 2.0 ml of CRC adjusted in advance to a hematocrit value of about 70% was left stnading at 4°C for 5 weeks. At the end of this standing, the CRC liqud was tested for change of free hemoglobin concentration in plasma by following the procedure of Example 1.\nAn emulsion was prepared by dissolving Tween 80 (reagent grade product of Wako Junyaku K.K.) in a SAG liquid so as to be contained therein in a concentration of 600 ug/ml, adding 12 mM of isopropyl isolaurate to the resultant solution, and stirring the resultant mixture for uniform dispersion. In a stoppered polypropylene tube, a mixture of 1.0 ml of the emulsion prepared as described above and 2.0 ml of CRC adjusted in advance to a hematocrit value of about 70% and then left standing at 4°C for 5 weeks. At the end of the satnding, the liquid was tested for free hemoglobin concentraiton in plasma by following the procedure of Example 1. The results are shown in Talbe 24."}, "[5]": {"conditions": "aggregation inducer 5 µg/ml collagen"}}, "note": "Where a name gives a salt, the structure may show the parent alone. Read-outs that look alike come from different tables or passages of the source.", "data": [{"molecule": "CC(C)OC(=O)/C=C\\C(=O)OC(C)C", "note": "[Diisopropyl maleate, reference compound]", "values": [{"measurement": "Hemoglobin concentration in plasma", "setting": "[1]; final concentration 0.4 mM", "value": 124, "unit": "Mg/ml"}, {"measurement": "Hemoglobin concentration in plasma", "setting": "[1]; final concentration 4.0 mM", "value": 138, "unit": "Mg/ml"}, {"measurement": "hemolysis depressing capacity (in words)", "setting": "[1]", "value": "possessed virtually no ability to prevent hemolysis or conversely caused hemolysis"}, {"measurement": "Hemoglobin concentration in plasma", "setting": "[2]; final concentration 0.4 mM", "value": 135}, {"measurement": "Hemoglobin concentration in plasma", "setting": "[2]; final concentration 4.0 mM", "value": 160}]}, {"molecule": "CCCCC(CC)C(=O)OCC", "note": "(stereo not shown) [Ethyl-2-ethylhexanoate, reference compound]", "values": [{"measurement": "hemolysis depressing capacity (in words)", "setting": "[1]", "value": "possessed virtually no ability to prevent hemolysis or conversely caused hemolysis"}]}, {"molecule": "CCCCCCCCOCC(O)CO", "note": "(stereo not shown) [Glycerine monooctyl ether, reference compound]", "values": [{"measurement": "hemolysis depressing capacity (in words)", "setting": "[1]", "value": "possessed virtually no ability to prevent hemolysis or conversely caused hemolysis"}]}, {"molecule": "CCCCCCCCCCOC(=O)/C=C\\C(=O)OC(C)C", "note": "[Isopropyl decyl maleate]", "values": [{"measurement": "Hemoglobin concentration in plasma", "setting": "[1]; final concentration 0.4 mM", "value": 41, "unit": "Mg/ml"}, {"measurement": "Hemoglobin concentration in plasma", "setting": "[1]; final concentration 4.0 mM", "value": 43, "unit": "Mg/ml"}, {"measurement": "Hemoglobin concentration in plasma", "setting": "[2]; final concentration 0.4 mM", "value": 95}, {"measurement": "Hemoglobin concentration in plasma", "setting": "[2]; final concentration 4.0 mM", "value": 99}]}, {"molecule": "CC(C)CCCCCCCCC(=O)OC(C)C", "note": "[Isopropyl isolaurate]", "values": [{"measurement": "Ratio of platelet aggregation", "setting": "[3]; aggregation inducer 5 µM ADP", "value": 99.3, "unit": "%"}, {"measurement": "Ratio of platelet aggregation", "setting": "[3]; [5]", "value": 101.6, "unit": "%"}, {"measurement": "Concentration of Free Hemoglobin in Plasma", "setting": "[4]; Table 24, final concentration of the additive in CRC 0.4 mM", "value": 86, "unit": "mg/dL"}, {"measurement": "Concentration of Free Hemoglobin in Plasma", "setting": "[4]; Table 24, final concentration of the additive in CRC 4.0 mM", "value": 230, "unit": "mg/dL"}]}, {"molecule": "CC(C)CCCCCCCCCCOC(=O)/C=C\\C(=O)OC(C)C", "note": "[Isopropyl isotridecyl maleate]", "values": [{"measurement": "Hemoglobin concentration in plasma", "setting": "[1]; final concentration 0.4 mM", "value": 35, "unit": "Mg/ml"}, {"measurement": "Hemoglobin concentration in plasma", "setting": "[1]; final concentration 4.0 mM", "value": 33, "unit": "Mg/ml"}, {"measurement": "Hemoglobin concentration in plasma", "setting": "[2]; final concentration 0.4 mM", "value": 90}, {"measurement": "Hemoglobin concentration in plasma", "setting": "[2]; final concentration 4.0 mM", "value": 95}, {"measurement": "activity at 400 µM", "setting": "[3]; aggregation inducer 5 µM ADP", "value": 94.3, "unit": "%"}, {"measurement": "activity at 400 µM", "setting": "[3]; [5]", "value": 94.5, "unit": "%"}]}, {"molecule": "Glycerine-1-butyl-3-isostearyl ether", "values": [{"measurement": "Ratio of platelet aggregation", "setting": "[3]; aggregation inducer 5 µM ADP", "value": 101.0, "unit": "%"}, {"measurement": "Ratio of platelet aggregation", "setting": "[3]; [5]", "value": 103.1, "unit": "%"}, {"measurement": "Concentration of Free Hemoglobin in Plasma", "setting": "[4]; Table 23, final concentration of the additive in CRC 0.4 mM", "value": 71, "unit": "mg/dL"}, {"measurement": "Concentration of Free Hemoglobin in Plasma", "setting": "[4]; Table 23, final concentration of the additive in CRC 4.0 mM", "value": 102, "unit": "mg/dL"}]}]}
